# Results from article PMC11079024, “Identification of a family of species-selective complex I inhibitors as potential anthelmintics” (Nature Communications, 2024).
# Where “and” joins values, the source holds several entries; their conditions need not be identical. Equal values may be shown once. Read-outs that look alike come from different tables or passages of the source.
# What was measured:
# [1] = system: P. hermaphrodita complex I; experiment: In vitro complex I activity assay, P. hermaphrodita mitochondria; assay type: biochemical, Phasmarhabditis hermaphrodita; settings: for in vitro complex I activity relative to solvent control: P. hermaphrodita mitochondria
# Procedure: (§1) Mitochondria were isolated from the following free-living nematode strains: C. elegans—N2, CB3474, ECA882, ECA917, ECA1075, ECA1080; C. briggsae—AF16; P. pacificus—PS312; and P. hermaphrodita—B178. With the exception of the P. hermaphrodita strain B178, adult worms of each strain were grown in bulk through liquid culture to obtain mitochondria in sufficient quantities. Due to poor growth in liquid media, mixed stage populations of P. hermaphrodita were washed off and collected from NGM plates seeded with OP50. The isolation of mitochondria from all free-living nematode strains followed the protocol previously outlined in Burns et al.[24]. In brief, a 1 L saturated culture of E. coli HB101 was concentrated 20-fold in 50 mL complete S-medium. ~500,000 L1 worms synchronized from an embryo preparation performed the day prior were added to the S-media/HB101 suspension and grown to adulthood over the course of 3.5 days at 20 °C with shaking at 165 rpm. Following growth, worms were collected in 10 ×15 mL conical tubes and washed 7 times in M9 buffer. Worm suspensions were then combined into a single 15 mL conical tube and diluted to a final volume of 15 mL with M9 buffer. 1 mL aliquots of worm suspension were then distributed to 15 × 1.5 mL screw-cap microcentrifuge tubes and were pelleted at 500 g for 1 min. Excess M9 was aspirated without disturbing the worm pellet. 600 μL ice-cold isolate buffer A (250 mM sucrose, 10 mM Tris (pH 7.5), 1 mM EDTA, 1 mM PMSF (freshly prepared)) and 300 μL cold glass beads were then added to each tube. Tubes were incubated on ice for 10 min, and the worms were then lysed by bead beating (6 x 30 s, with 1 min cooling intervals). Tubes containing worm lysate were centrifuged at 1,000 g for 10 min at 4 °C and the supernatant was transferred to 15 new microcentrifuge tubes on ice. The tubes were centrifuged a second time at 1,000 g for 10 min at 4 °C and the supernatant was once again transferred to 15 new microcentrifuge tubes on ice. These tubes were then centrifuged at 16,000 g for 10 min at 4 °C. The resulting mitochondrial pellet was washed twice by re-suspension in 300 μL of ice-cold isolate buffer B (250 mM sucrose, 10 mM Tris (pH 7.5), 1 mM EDTA). Following the final wash, isolation buffer was aspirated from each tube and the pellets were flash-frozen in ethanol/dry ice and stored at −80 °C until needed.
# (§2) The enzymatic activities of individual ETC complexes (I-IV) were assessed spectrophotometrically in isolated mitochondria using a Varioskan LUX Multimode plate reader (ThermoFisher Scientific). Mitochondrial pellets previously isolated were thawed on ice and resuspended in ice-cold isolation buffer (250 mM sucrose, 10 mM Tris (pH 7.5), 1 mM EDTA). The BCA assay (Walker, 1994) was used to quantify the protein concentration of mitochondria suspensions; solutions were diluted to a concentration of 0.2 mg/mL for use in all assays. For the complex I assay, mitochondria pellets were freeze-thawed on ice three times to increase enzyme accessibility. […] 20 μL mitochondria suspension was then added/mixed with a pipette to initiate the reaction. Immediately following the addition of mitochondria, absorbance was measured (complex I and II: 600 nm; complex III and IV: 550 nm) in 30 s intervals over 15 min. Enzymatic activity was determined in each reaction by plotting absorbance versus time and calculating the slope of the curve during the initial linear phase of the reaction. […] Percent activity of each complex was calculated by dividing the enzyme-specific activity of each well by the enzyme-specific activity of the corresponding solvent controls.
# Chemical solutions were prepared in complex I assay buffer composed of 25 mM KPi buffer (pH 7.5), 3 mg/mL bovine serum albumin (BSA), 80 μM NADH, 60 μM decylubiquinone, 160 μM DCIP, 2 μM antimycin A and 2 mM KCN. […]
# C. briggsae complex I = C. briggsae complex I (Caenorhabditis briggsae, UniProt A8X476+A8XFG2+Q8HEC4); experiment: In vitro complex I activity assay, C. briggsae mitochondria; assay type: biochemical
# Procedure: as §1, §2
# Chemical solutions were prepared in complex I assay buffer composed of 25 mM KPi buffer (pH 7.5), 3 mg/mL bovine serum albumin (BSA), 80 μM NADH, 60 μM decylubiquinone, 160 μM DCIP, 2 μM antimycin A and 2 mM KCN.
# For preliminary screens of hit compounds, compounds were screened at 100 μM; data are the average of at least three biological replicates.
# C. briggsae complex I, sequence (A8X476 31-482): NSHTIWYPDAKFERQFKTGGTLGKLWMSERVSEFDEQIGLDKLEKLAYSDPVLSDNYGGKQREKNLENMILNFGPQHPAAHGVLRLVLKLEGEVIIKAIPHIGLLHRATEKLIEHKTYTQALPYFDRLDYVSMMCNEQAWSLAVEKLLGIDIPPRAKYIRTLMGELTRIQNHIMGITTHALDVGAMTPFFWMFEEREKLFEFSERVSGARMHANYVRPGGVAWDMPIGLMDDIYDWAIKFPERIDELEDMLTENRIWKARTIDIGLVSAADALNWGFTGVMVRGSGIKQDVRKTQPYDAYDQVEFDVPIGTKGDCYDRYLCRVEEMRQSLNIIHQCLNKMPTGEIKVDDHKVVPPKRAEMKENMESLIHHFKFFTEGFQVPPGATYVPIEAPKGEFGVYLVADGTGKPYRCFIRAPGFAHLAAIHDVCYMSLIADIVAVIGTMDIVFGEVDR
# C. briggsae complex I, sequence (A8XFG2 17-199): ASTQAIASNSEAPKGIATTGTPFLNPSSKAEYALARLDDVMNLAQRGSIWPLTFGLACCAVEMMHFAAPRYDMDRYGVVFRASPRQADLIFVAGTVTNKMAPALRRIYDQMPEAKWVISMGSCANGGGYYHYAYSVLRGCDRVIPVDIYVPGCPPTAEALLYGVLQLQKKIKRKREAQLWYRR
# C. briggsae complex I, sequence (Q8HEC4 whole entry): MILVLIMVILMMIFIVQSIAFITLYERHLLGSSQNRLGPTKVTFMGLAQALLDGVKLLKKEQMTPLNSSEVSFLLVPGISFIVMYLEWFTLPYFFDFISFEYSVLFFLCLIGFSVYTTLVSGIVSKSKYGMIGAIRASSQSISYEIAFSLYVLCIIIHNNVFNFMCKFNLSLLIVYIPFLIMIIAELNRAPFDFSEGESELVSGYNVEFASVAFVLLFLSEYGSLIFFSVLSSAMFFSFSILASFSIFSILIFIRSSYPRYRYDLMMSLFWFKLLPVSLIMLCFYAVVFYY
structure (smiles),measurement,setting,value
Cc1nc2ccccc2n1Cc1ccc(Cl)cc1 [STK697993],in vitro complex I activity relative to solvent control,"[1]; 0.0001 µM, Mean",89.612%
same,in vitro complex I activity relative to solvent control,"[1]; 0.0001 µM, single replicate",93.319% and 105.139% and 70.379%
same,in vitro complex I activity relative to solvent control,"[1]; 0.0005 µM, Mean",95.634%
same,in vitro complex I activity relative to solvent control,"[1]; 0.0005 µM, single replicate",119.766% and 92.855% and 74.280%
same,in vitro complex I activity relative to solvent control,"[1]; 0.001 µM, Mean",90.469%
same,in vitro complex I activity relative to solvent control,"[1]; 0.001 µM, single replicate",96.266% and 129.304% and 45.836%
same,in vitro complex I activity relative to solvent control,"[1]; 0.0025 µM, Mean",83.278%
same,in vitro complex I activity relative to solvent control,"[1]; 0.0025 µM, single replicate",64.388% and 114.111% and 71.337%
same,in vitro complex I activity relative to solvent control,"[1]; 0.005 µM, Mean",110.209%
same,in vitro complex I activity relative to solvent control,"[1]; 0.005 µM, single replicate",99.329% and 145.962% and 85.335%
same,in vitro complex I activity relative to solvent control,"[1]; 0.013 µM, Mean",102.008%
same,in vitro complex I activity relative to solvent control,"[1]; 0.013 µM, single replicate",103.702% and 118.527% and 83.796%
same,in vitro complex I activity relative to solvent control,"[1]; 0.025 µM, Mean",81.894%
same,in vitro complex I activity relative to solvent control,"[1]; 0.025 µM, single replicate",82.152% and 107.849% and 55.682%
same,in vitro complex I activity relative to solvent control,"[1]; 0.063 µM, Mean",53.328%
same,in vitro complex I activity relative to solvent control,"[1]; 0.063 µM, single replicate",61.601% and 65.149% and 33.235%
same,in vitro complex I activity relative to solvent control,"[1]; 0.125 µM, Mean",31.057%
same,in vitro complex I activity relative to solvent control,"[1]; 0.125 µM, single replicate",37.073% and 51.097% and 5.000%
same,in vitro complex I activity relative to solvent control,"[1]; 0.313 µM, Mean",8.632%
same,in vitro complex I activity relative to solvent control,"[1]; 0.313 µM, single replicate",10.235% and 15.661% and 0.000%
same,in vitro complex I activity relative to solvent control,"[1]; 0.625 µM, Mean",5.779%
same,in vitro complex I activity relative to solvent control,"[1]; 0.625 µM, single replicate",0.000% and 9.493% and 7.843%
same,in vitro complex I activity relative to solvent control,"[1]; 1.5 µM, Mean",4.860%
same,in vitro complex I activity relative to solvent control,"[1]; 1.5 µM, single replicate",0.000% and 2.483% and 12.098%
same,in vitro complex I activity relative to solvent control,"[1]; 3 µM, Mean",2.448%
same,in vitro complex I activity relative to solvent control,"[1]; 3 µM, single replicate",0.000% and 7.344%
same,in vitro complex I activity relative to solvent control,"[1]; 15 µM, Mean",12.306%
same,in vitro complex I activity relative to solvent control,"[1]; 15 µM, single replicate",12.065% and 18.802% and 6.051%
same,in vitro complex I activity relative to solvent control,"[1]; 37.5 µM, Mean",7.732%
same,in vitro complex I activity relative to solvent control,"[1]; 37.5 µM, single replicate",0.065% and 16.547% and 6.585%
same,in vitro complex I activity relative to solvent control,"[1]; 75 µM, Mean",3.784%
same,in vitro complex I activity relative to solvent control,"[1]; 75 µM, single replicate",0.000% and 11.350%
same,IC50,[1]; purified mitochondria,70.3 nM
same,remaining activity at 0.0001 µM,"C. briggsae complex I; C. briggsae mitochondria, 0.0001 µM, Mean, read-out: in vitro complex I activity relative to solvent control",84.5%
same,in vitro complex I activity relative to solvent control,"C. briggsae complex I; C. briggsae mitochondria, 0.0001 µM, single replicate",91.655% and 73.328%
same,remaining activity at 0.0001 µM,"C. briggsae complex I; C. briggsae mitochondria, 0.0001 µM, single replicate, read-out: in vitro complex I activity relative to solvent control",88.5%
same,remaining activity at 0.0005 µM,"C. briggsae complex I; C. briggsae mitochondria, 0.0005 µM, Mean, read-out: in vitro complex I activity relative to solvent control",92.6%
same,in vitro complex I activity relative to solvent control,"C. briggsae complex I; C. briggsae mitochondria, 0.0005 µM, single replicate",92.151% and 96.046%
same,remaining activity at 0.0005 µM,"C. briggsae complex I; C. briggsae mitochondria, 0.0005 µM, single replicate, read-out: in vitro complex I activity relative to solvent control",89.6%
same,remaining activity at 0.001 µM,"C. briggsae complex I; C. briggsae mitochondria, 0.001 µM, Mean, read-out: in vitro complex I activity relative to solvent control",98.3%
same,in vitro complex I activity relative to solvent control,"C. briggsae complex I; C. briggsae mitochondria, 0.001 µM, single replicate",98.678% and 90.340%
same,remaining activity at 0.001 µM,"C. briggsae complex I; C. briggsae mitochondria, 0.001 µM, single replicate, read-out: in vitro complex I activity relative to solvent control",106%
same,remaining activity at 0.0025 µM,"C. briggsae complex I; C. briggsae mitochondria, 0.0025 µM, Mean, read-out: in vitro complex I activity relative to solvent control",104%
same,in vitro complex I activity relative to solvent control,"C. briggsae complex I; C. briggsae mitochondria, 0.0025 µM, single replicate",101.880% and 103.212%
same,remaining activity at 0.0025 µM,"C. briggsae complex I; C. briggsae mitochondria, 0.0025 µM, single replicate, read-out: in vitro complex I activity relative to solvent control",106%
same,remaining activity at 0.005 µM,"C. briggsae complex I; C. briggsae mitochondria, 0.005 µM, Mean, read-out: in vitro complex I activity relative to solvent control",99.2%
same,in vitro complex I activity relative to solvent control,"C. briggsae complex I; C. briggsae mitochondria, 0.005 µM, single replicate",95.872% and 91.749%
same,remaining activity at 0.005 µM,"C. briggsae complex I; C. briggsae mitochondria, 0.005 µM, single replicate, read-out: in vitro complex I activity relative to solvent control",110%
same,remaining activity at 0.013 µM,"C. briggsae complex I; C. briggsae mitochondria, 0.013 µM, Mean, read-out: in vitro complex I activity relative to solvent control",91%
same,in vitro complex I activity relative to solvent control,"C. briggsae complex I; C. briggsae mitochondria, 0.013 µM, single replicate",83.705% and 87.377%
same,remaining activity at 0.013 µM,"C. briggsae complex I; C. briggsae mitochondria, 0.013 µM, single replicate, read-out: in vitro complex I activity relative to solvent control",102%
same,remaining activity at 0.025 µM,"C. briggsae complex I; C. briggsae mitochondria, 0.025 µM, Mean, read-out: in vitro complex I activity relative to solvent control",82.5%
same,in vitro complex I activity relative to solvent control,"C. briggsae complex I; C. briggsae mitochondria, 0.025 µM, single replicate",95.007% and 79.112% and 73.336%
same,remaining activity at 0.063 µM,"C. briggsae complex I; C. briggsae mitochondria, 0.063 µM, Mean, read-out: in vitro complex I activity relative to solvent control",54.5%
same,in vitro complex I activity relative to solvent control,"C. briggsae complex I; C. briggsae mitochondria, 0.063 µM, single replicate",60.174% and 66.771% and 36.409%
same,remaining activity at 0.125 µM,"C. briggsae complex I; C. briggsae mitochondria, 0.125 µM, Mean, read-out: in vitro complex I activity relative to solvent control",33.3%
same,in vitro complex I activity relative to solvent control,"C. briggsae complex I; C. briggsae mitochondria, 0.125 µM, single replicate",36.143% and 47.895% and 15.798%
same,remaining activity at 0.313 µM,"C. briggsae complex I; C. briggsae mitochondria, 0.313 µM, Mean, read-out: in vitro complex I activity relative to solvent control",12.2%
same,in vitro complex I activity relative to solvent control,"C. briggsae complex I; C. briggsae mitochondria, 0.313 µM, single replicate",16.180% and 20.382% and 0.000%
same,remaining activity at 0.625 µM,"C. briggsae complex I; C. briggsae mitochondria, 0.625 µM, Mean, read-out: in vitro complex I activity relative to solvent control",5.29%
same,in vitro complex I activity relative to solvent control,"C. briggsae complex I; C. briggsae mitochondria, 0.625 µM, single replicate",0.000% and 15.885%
same,remaining activity at 1.5 µM,"C. briggsae complex I; C. briggsae mitochondria, 1.5 µM, Mean, read-out: in vitro complex I activity relative to solvent control",3.62%
same,in vitro complex I activity relative to solvent control,"C. briggsae complex I; C. briggsae mitochondria, 1.5 µM, single replicate",0.000% and 10.874%
same,remaining activity at 3 µM,"C. briggsae complex I; C. briggsae mitochondria, 3 µM, Mean, read-out: in vitro complex I activity relative to solvent control",5.17%
same,in vitro complex I activity relative to solvent control,"C. briggsae complex I; C. briggsae mitochondria, 3 µM, single replicate",0.000% and 15.522%
same,remaining activity at 15 µM,"C. briggsae complex I; C. briggsae mitochondria, 15 µM, Mean, read-out: in vitro complex I activity relative to solvent control",7.49%
same,in vitro complex I activity relative to solvent control,"C. briggsae complex I; C. briggsae mitochondria, 15 µM, single replicate",0.019% and 20.437% and 1.999%
same,remaining activity at 37.5 µM,"C. briggsae complex I; C. briggsae mitochondria, 37.5 µM, Mean, read-out: in vitro complex I activity relative to solvent control",5.41%
same,in vitro complex I activity relative to solvent control,"C. briggsae complex I; C. briggsae mitochondria, 37.5 µM, single replicate",0.000% and 16.226%
same,remaining activity at 75 µM,"C. briggsae complex I; C. briggsae mitochondria, 75 µM, Mean, read-out: in vitro complex I activity relative to solvent control",4.07%
same,in vitro complex I activity relative to solvent control,"C. briggsae complex I; C. briggsae mitochondria, 75 µM, single replicate",3.330% and 6.641% and 2.225%
same,IC50,C. briggsae complex I; purified mitochondria,73.7 nM
